# Experiment: Cytotoxicity against rat PC12 cells assessed as cell survival at 100 uM after 24 hrs by MTT assay relative to control
# Format: toxicity, PC-12
# Conditions: read-out: Survival
smiles,measurement,value
O=C1CCOc2cc(OCc3ccc(F)cc3)ccc21,"viability at 24 h, 100 µM",93.1%
